From article PMC12134901, “Synthesis and characterization of thymol-derived phenoxy acetamide derivatives using DFT, molecular docking, and parasitological investigations” (Frontiers in Chemistry, 2025) come the findings set out here.

In data set [1] the test system is Cryptosporidium oocysts. In words: Oocyst shedding in feces of Cryptosporidium-infected immunosuppressed mice (modified Ziehl–Neelsen stain). In kind it is in vivo. As to conditions: compounds 100 mg/kg/day, NTZ 250 mg/kg/day, orally from 7th day post-infection for 10 days; for Shed oocysts/mg (Mean ± SD): immunosuppressed infected mice, feces 30 days post infection; for R%: reduction percent in oocyst count: vs infected non-treated G2. The text has this:
Cryptosporidium oocysts were obtained from the Parasitology Lab, Theodor Bilharz Research Institute, Giza, Egypt. Before infection, the oocysts were concentrated and counted in PBS using a hemocytometer. To maintain the organism cycle, five mice were inoculated with 3000–3500 oocysts using a tuberculin syringe in an intra-esophageal manner. ([Operario et al., 2015]).
Eighty healthy laboratory-bred adult male Swiss albino mice weighing 30–40 g were purchased from the animal house of the Faculty of Pharmacy, Pharos University. The animals were allowed to acclimatize for 1 week to the environmental conditions and housed in grouped plastic cages away from direct sunlight, under appropriate sanitary conditions and controlled temperature and humidity.
Immune suppression was induced and maintained throughout the experiment by administering dexamethasone (Dexazone, Al Kahira Pharmaceutical and Chemical Industries) through oral-gastric gavage at a dose of 0.25 mg/g/d for 14 consecutive days prior to inoculation with Cryptosporidium oocysts. ([Najoom et al., 2021]).
On day 15 of dexamethasone treatment, mice in the infected groups were inoculated with 10^4 Cryptosporidium oocysts using oral-gastric gavage. Before infection, oocysts were concentrated and counted in PBS using a hemocytometer.
Mice were distributed equally into eight groups of 10 each. At the end of the experiment, all animals were anesthetized for parasitological, ultrastructural, immunological, and biochemical studies. Mice grouping details are provided in the Supplementary Material.
On the final day of the experiment (30 days post infection), fresh fecal pellets from the infected mice in each group were collected to count the number of oocysts. Every sample was homogenized through suspension in double-distilled H2O. Subsequently, a fecal smear of 1 mg feces was prepared and stained using the modified Ziehl–Neelsen staining method. The stained fecal smear was examined microscopically, and the Cryptosporidium oocysts were counted. The number of oocysts per mg feces for each mouse was tabulated as the mean value for each group. All reported data represent the means of three independent trials.

Data set [2] deals with TNF-α. In words: Serum TNF-α in infected immunosuppressed mice (ELISA). In kind it is in vivo. As to conditions: compounds 100 mg/kg/day, NTZ 250 mg/kg/day, orally 10 days, mean ± SD. Here is the method: (§1) Serum concentrations of IFN-γ, TNF-α, IL-6, and IL-10 for each group were determined using an enzyme-linked immunosorbent assay reader, following the manufacturer’s protocol.
(ELISA stands for enzyme-linked immunosorbent assay.)

Data set [3] relates to IFN-γ. In words: Serum IFN-γ in infected immunosuppressed mice (ELISA). In kind it is in vivo. As to conditions: compounds 100 mg/kg/day, NTZ 250 mg/kg/day, orally 10 days, mean ± SD. As for the experimental part:
as §1

The subject of data set [4] is small intestinal epithelial cells. In words: TEM of small intestine sections of treated infected mice. In kind it is in vivo. As for the experimental part: The small intestine of each mouse was removed, cut into small pieces (1 mm^3), fixed in 2% glutaraldehyde in 0.1 M phosphate buffer, postfixed in 1% osmium tetraoxide for 2 h at 4°C, dehydrated, and embedded in Epon. Semi-thin and ultrathin sections (two samples per mouse) were prepared using an ultramicrotome. The sections were stained and analyzed using a transmission electron microscope.

The test system of data set [5] is IL-6. In words: Serum IL-6 in infected immunosuppressed mice (ELISA). In kind it is in vivo. As to conditions: compounds 100 mg/kg/day, NTZ 250 mg/kg/day, orally 10 days, mean ± SD. As for the experimental part: as §1
The test system of data set [6] is IL-10. In words: Serum IL-10 in infected immunosuppressed mice (ELISA). In kind it is in vivo. Particulars: compounds 100 mg/kg/day, NTZ 250 mg/kg/day, orally 10 days, mean ± SD. Here is the method:
as §1

Data set [7] can be described thus: Hemolytic activity assay (cytotoxicity on RBCs). As to conditions: rat, washed erythrocytes (RBCs) suspended in PBS, 60 min at 37°C; for hemolysis at 60 min, 62.5 μg/mL: pH 7.4, 62.5 μg/mL; for hemolysis at 60 min, 125 μg/mL: pH 7.4, 125 μg/mL; for hemolysis at 60 min, 250 μg/mL: pH 7.4, 250 μg/mL; for hemolysis at 60 min, 500 μg/mL: pH 7.4, 500 μg/mL; for hemolysis at 60 min, 1000 μg/mL: pH 7.4, 1,000 μg/mL. In kind it is cell-based, rat. As for the experimental part: (§2) The hemolytic effect of different compounds was evaluated using an existing method. ([Diaconu et al., 2020]). One milliliter of rat blood was collected, added to a sterile, screw-top EDTA tube, and centrifuged at 3000 rpm for 20 min. The upper layer was decanted, and the erythrocytes were rinsed several times with 10 mL of cooled isotonic and sterile phosphate-buffered saline (PBS) with a pH of 7.4. The rinsed cells were re-suspended in 20 mL sterile, cold PBS. The compounds (serial dilutions of 62.5–1,000 μg/mL in DMSO) were added to the erythrocyte solution and incubated for 60 min at 37°C. After centrifugation at 3000 rpm for 10 min, the absorbance of hemoglobin in the supernatant at 540 nm was used to calculate the hemolysis rate. Triton X-100 (0.1% in PBS) was used as a positive control, and the vehicle (PBS/DMSO) was used as the negative control. The hemolysis percentage was calculated as follows: Hemolysis percentage = (Ab of sample − Ab of negative control)/(Ab of positive control–Ab of negative control) × 100.

For data set [8], the system named is RBCs. In words: Hemolytic activity assay (cytotoxicity on RBCs). In kind it is cell-based, rat. Particulars: for IC50: Rattus norvegicus, read-out: IC50: sample concentration causing 50% hemolysis of RBCs, highest tested concentration 1,000 μg/mL. Here is the method: as §2

Converted amounts (≈) assume the structure as drawn.

For `CC(=O)Oc1ccccc1C(=O)Nc1ncc([N+](=O)[O-])s1` [NTZ, nitazoxanide, reference compound], in data set [1], the “Shed oocysts/mg (Mean ± SD)” value came to 10.4 ± 0.51 oocysts/mg and the “R%: reduction percent in oocyst count” value was determined as 70%. In data set [2], the TNF-α turned out to be 7.8 ± 0.91 pg/mL. Also, in data set [3], the IFN-γ amounted to 422.1 ± 3.21 pg/mL. Also, the “TEM ultrastructure of small intestine sections” value in data set [4] is “normal ultrastructure and regularly arranged apical microvilli with oval euchromatic nuclei”.

Regarding `Cc1ccc(C(C)C)c(OCC(=O)NN2C(=O)c3ccccc3C2=O)c1` [Compound 5a, N-(1,3-dioxoisoindolin-2-yl)-2-(2-isopropyl-5-methylphenoxy)acetamide], in data set [1], the “Shed oocysts/mg (Mean ± SD)” value turned out to be 13.2 ± 1.034 oocysts/mg and the “R%: reduction percent in oocyst count” value came out at 62%. Further, the IL-6 in data set [5] is on record as 176.8 ± 0.91 pg/mL. The molecule also showed an IL-10 in data set [6] of 327.6 ± 1.34 pg/mL. Also, in data set [7], the hemolysis at 60 min, 62.5 μg/mL was 0%; the hemolysis at 60 min, 125 μg/mL is 0%; the hemolysis at 60 min, 250 μg/mL stood at 0%; the hemolysis at 60 min, 500 μg/mL was 0%. In data set [7], this molecule yielded a hemolysis at 60 min, 1000 μg/mL of 0%. The molecule also displayed a TNF-α in data set [2] of 13.1 ± 0.99 pg/mL. The IFN-γ in data set [3] was 477.8 ± 1.61 pg/mL.

Consider `Cc1ccc(C(C)C)c(OCC(=O)Nn2c(=O)c3cc4c(=O)n(NC(=O)COc5cc(C)ccc5C(C)C)c(=O)c4cc3c2=O)c1` [Compound 9, N,N'-(1,3,5,7-tetraoxopyrrolo[3,4-f]isoindole-2,6(1H,3H,5H,7H)-diyl)bis(2-(2-isopropyl-5-methylphenoxy)acetamide)], for which, in data set [1], the “Shed oocysts/mg (Mean ± SD)” value is reported as 15.4 ± 0.52 oocysts/mg and the “R%: reduction percent in oocyst count” value turned out to be 55%. The IL-6 in data set [5] worked out at 215.7 ± 1.15 pg/mL. Besides, the IL-10 in data set [6] is reported as 416.8 ± 0.63 pg/mL. For the same molecule, in data set [7], the hemolysis at 60 min, 62.5 μg/mL stood at 0%; the hemolysis at 60 min, 125 μg/mL is 0%; the hemolysis at 60 min, 250 μg/mL is 0%; the hemolysis at 60 min, 500 μg/mL came to 0%. The molecule also had a hemolysis at 60 min, 1000 μg/mL in data set [7] of 35%. Also, the IC50 in data set [8] is 1560 µg/mL (≈ 2.48 mM). The TNF-α in data set [2] turned out to be 16.2 ± 1.03 pg/mL. In data set [3], this molecule had an IFN-γ of 534.2 ± 1.26 pg/mL.

Regarding `Cc1ccc(C(C)C)c(OCC(=O)NN2C(=O)c3cccc4c(N)ccc(c34)C2=O)c1` [Compound 7b, N-(6-amino-1,3-dioxo-1H-benzo[de]isoquinolin-2(3H)-yl)-2-(2-isopropyl-5-methylphenoxy)acetamide], in data set [1], the “Shed oocysts/mg (Mean ± SD)” value amounted to 11.5 ± 0.85 oocysts/mg and the “R%: reduction percent in oocyst count” value is on record as 67%. Besides, the IL-6 in data set [5] is on record as 143.1 ± 1.1 pg/mL. The IL-10 in data set [6] amounted to 277.2 ± 1.47 pg/mL. In data set [7], this molecule had a hemolysis at 60 min, 62.5 μg/mL of 0%; a hemolysis at 60 min, 125 μg/mL of 0%; a hemolysis at 60 min, 250 μg/mL of 0%; a hemolysis at 60 min, 500 μg/mL of 0%. In data set [7], this molecule gave a hemolysis at 60 min, 1000 μg/mL of 0%. This molecule also had a TNF-α in data set [2] of 11.8 ± 1.03 pg/mL. Further, in data set [3], the IFN-γ is reported as 415.2 ± 2.57 pg/mL. In addition, in data set [4], the “TEM ultrastructure of small intestine sections” value was “healthy microvilli (slightly disfigured and disarranged)”.

Regarding `Cc1ccc(C(C)C)c(OCC(=O)NN2C(=O)c3cccc4cccc(c34)C2=O)c1` [Compound 7a, N-(1,3-dioxo-1H-benzo[de]isoquinolin-2(3H)-yl)-2-(2-isopropyl-5-methylphenoxy) acetamide], in data set [1], the “Shed oocysts/mg (Mean ± SD)” value is on record as 16.8 ± 0.63 oocysts/mg and the “R%: reduction percent in oocyst count” value is given as 51%. This molecule returned an IL-6 in data set [5] of 237.4 ± 2.23 pg/mL. The molecule also returned an IL-10 in data set [6] of 434.2 ± 1.13 pg/mL. In data set [7], the hemolysis at 60 min, 62.5 μg/mL was determined as 0%; the hemolysis at 60 min, 125 μg/mL amounted to 0%; the hemolysis at 60 min, 250 μg/mL worked out at 0%; the hemolysis at 60 min, 500 μg/mL is 5.02%. The molecule also showed a hemolysis at 60 min, 1000 μg/mL in data set [7] of 6.18%. Also, the Hemolysis % in data set [8] (1,000 μg/mL, 60 min at 37°C) turned out to be 6.1873%. Also, the IC50 in data set [8] is 6750 µg/mL (≈ 16.8 mM). The molecule further showed a TNF-α in data set [2] of 15.9 ± 0.87 pg/mL. The IFN-γ in data set [3] is reported as 608.8 ± 2.48 pg/mL.

As for `Cc1ccc(C(C)C)c(OCC(=O)NN2C(=O)c3ccc(C(=O)O)cc3C2=O)c1` [Compound 5b, 2-(2-(2-Isopropyl-5-methylphenoxy)acetamido)-1,3-dioxoisoindoline-5-carboxylic acid], in data set [1], the “Shed oocysts/mg (Mean ± SD)” value was 14.7 ± 0.67 oocysts/mg and the “R%: reduction percent in oocyst count” value came to 57%. Moreover, the IL-6 in data set [5] is 181.7 ± 149 pg/mL. Moreover, the IL-10 in data set [6] came out at 387.8 ± 0.78 pg/mL. Besides, in data set [7], the hemolysis at 60 min, 62.5 μg/mL was 0%; the hemolysis at 60 min, 125 μg/mL amounted to 0%; the hemolysis at 60 min, 250 μg/mL came to 0%; the hemolysis at 60 min, 500 μg/mL was 0%. In data set [7], this molecule came in with a hemolysis at 60 min, 1000 μg/mL of 0%. The molecule further showed a TNF-α in data set [2] of 13.7 ± 1.25 pg/mL. In data set [3], this molecule yielded an IFN-γ of 494.2 ± 3.15 pg/mL.
